Experiments:
Haemonchus contortus L3 = assay: microbe, parasite or virus in culture; assay type: cell-based; settings: for minimal effective concentration: Haemonchus contortus, 96 h, read-out: HcL3 Minimal Effective Concentration (MEC)
D. immitis microfilariae = assay: Dirofilaria immitis, microfilariae (DiMF) in vitro motility assay; assay type: cell-based; settings: for minimal effective concentration: Dirofilaria immitis, 72 h, read-out: DiMF minimally effective dose (MEC)

Row | Compound | minimal effective concentration (Haemonchus contortus L3) | minimal effective concentration (D. immitis microfilariae) | HcL3 Minimal Effective Concentration (MEC) (Haemonchus contortus L3) | DiMF minimally effective dose (MEC) (D. immitis microfilariae; decrease in microfilariae motility by subjective visual assessment, observed at 72 hours)
1 | N#Cc1ccc2c(c1)c1c(n2C(=O)NCc2ccnc(O)c2)CCN(C/C=C/c2cc(F)c(Cl)c(F)c2)C1 [Example 450, (E)-2-(3-(4-chloro-3,5-difluorophenyl)allyl)-8-cyano-N-((2-hydroxypyridin-4-yl)methyl)-1,2,3,4-tetrahydro-5H-pyrido[4,3-b]indole-5-carboxamide] | 0.5 µM | 100 µM | – | –
2 | N#Cc1ccc2c(c1)c1c(n2C(=O)NCc2ccnc(Cl)c2)CCN(C/C=C/c2ccc(Cl)c(Br)c2)C1 [Example 97, (E)-2-(3-(3-bromo-4-chlorophenyl)allyl)-N-((2-chloropyridin-4-yl)methyl)-8-cyano-1,2,3,4-tetrahydro-5H-pyrido[4,3-b]indole-5-carboxamide] | 0.3 µM | > 100 µM | – | –
3 | COc1cc(CNC(=O)n2c3c(c4cc(C#N)ccc42)CN(C/C=C/c2cc(F)c(F)c(F)c2)CC3)ccn1 [Example 63, (E)-8-cyano-N-((2-methoxypyridin-4-yl)methyl)-2-(3-(3,4,5-trifluorophenyl)allyl)-1,2,3,4-tetrahydro-5H-pyrido[4,3-b]indole-5-carboxamide] | – | 0.3 µM | – | –
4 | N#Cc1ccc(/C=C/CN2CCc3c(c4ccc(Cl)cc4n3C(=O)NCc3ccnc(Cl)c3)C2)cc1 [Example 212, (E)-7-chloro-N-((2-chloropyridin-4-yl)methyl)-2-(3-(4-cyanophenyl)allyl)-1,2,3,4-tetrahydro-5H-pyrido[4,3-b]indole-5-carboxamide] | 1 µM | > 100 µM | – | –
5 | N#Cc1ccc2c(c1)c1c(n2C(=O)NCc2ccnc(Cl)c2)CCN(C/C=C/c2cc(F)cc(F)c2)C1 [Example 90, (E)-N-((2-chloropyridin-4-yl)methyl)-8-cyano-2-(3-(3,5-difluorophenyl)allyl)-1,2,3,4-tetrahydro-5H-pyrido[4,3-b]indole-5-carboxamide] | 0.1 µM | 3.3 µM | – | –
6 | O=C(NCc1ccnc(F)c1)n1c2c(c3cc(Cl)ccc31)CN(C/C=C/c1ccc(F)cc1Cl)CC2 [Example 256, (E)-8-chloro-2-(3-(2-chloro-4-fluorophenyl)allyl)-N-((2-fluoropyridin-4-yl)methyl)-1,2,3,4-tetrahydro-5H-pyrido[4,3-b]indole-5-carboxamide] | 0.2 µM | 10 µM | – | –
7 | O=C(NCc1ccnc(Cl)c1)n1c2c(c3cc(Cl)c(Cl)cc31)CN(C/C=C/c1ccc(Cl)c(Cl)c1)CC2 [Example 281, (E)-7,8-dichloro-N-((2-chloropyridin-4-yl)methyl)-2-(3-(3,4-dichlorophenyl)allyl)-1,2,3,4-tetrahydro-5H-pyrido[4,3-b]indole-5-carboxamide] | 1 µM | > 100 µM | – | –
8 | O=C(NCc1ccnc(Cl)c1)n1c2c(c3ccc(OC(F)(F)F)cc31)CN(C/C=C/c1ccc(Cl)c(F)c1)CC2 [Example 336, (E)-2-(3-(4-chloro-3-fluorophenyl)allyl)-N-((2-chloropyridin-4-yl)methyl)-7-(trifluoromethoxy)-1,2,3,4-tetrahydro-5H-pyrido[4,3-b]indole-5-carboxamide] | 1 µM | 33 µM | – | –
9 | O=C(NCc1ccnc(F)c1)n1c2c(c3ccc(OC(F)(F)F)cc31)CN(C/C=C/c1cc(F)cc(F)c1)CC2 [Example 378, (E)-2-(3-(3,5-difluorophenyl)allyl)-N-((2-fluoropyridin-4-yl)methyl)-7-(trifluoromethoxy)-1,2,3,4-tetrahydro-5H-pyrido[4,3-b]indole-5-carboxamide] | 1.8 µM | 10 µM | – | –
10 | N#Cc1ccc2c(c1)c1c(n2C(=O)NCc2ccnc(F)c2)CCN(C/C=C/c2ccc(F)c(F)c2F)C1 [Example 110, (E)-8-cyano-N-((2-fluoropyridin-4-yl)methyl)-2-(3-(2,3,4-trifluorophenyl)allyl)-1,2,3,4-tetrahydro-5H-pyrido[4,3-b]indole-5-carboxamide] | 0.3 µM | > 100 µM | – | –
11 | O=C(NCc1ccnc(Cl)c1)n1c2c(c3ccc(N4CCOCC4)cc31)CN(C/C=C/c1ccc(Cl)c(Cl)c1)CC2 [Example 508, (E)-N-((2-chloropyridin-4-yl)methyl)-2-(3-(3,4-dichlorophenyl)allyl)-7-morpholino-1,2,3,4-tetrahydro-5H-pyrido[4,3-b]indole-5-carboxamide] | 1.6 µM | 9 µM | – | –
12 | O=C(NCc1ccnc(Cl)c1)n1c2c(c3cc(Br)c(C(F)(F)F)cc31)CN(C/C=C/c1ccc(Cl)cc1)CC2 [Example 498, (E)-8-bromo-2-(3-(4-chlorophenyl)allyl)-N-((2-chloropyridin-4-yl)methyl)-7-(trifluoromethyl)-1,2,3,4-tetrahydro-5H-pyrido[4,3-b]indole-5-carboxamide] | 1.8 µM | 5.7 µM | – | –
13 | O=C(NCc1ccnc(Cl)c1)n1c2c(c3cc(OC(F)(F)F)c(F)cc31)CN(C/C=C/c1ccc(Cl)cc1)CC2 [Example 495, (E)-2-(3-(4-chlorophenyl)allyl)-N-((2-chloropyridin-4-yl)methyl)-7-fluoro-8-(trifluoromethoxy)-1,2,3,4-tetrahydro-5H-pyrido[4,3-b]indole-5-carboxamide] | 1 µM | 10 µM | – | –
14 | N#Cc1ccc2c(c1)c1c(n2C(=O)NCc2ccnc(Cl)c2)CCN(C/C=C/c2ccc(Cl)c(F)c2)C1 [Example 72, (E)-2-(3-(4-chloro-3-fluorophenyl)allyl)-N-((2-chloropyridin-4-yl)methyl)-8-cyano-1,2,3,4-tetrahydro-5H-pyrido[4,3-b]indole-5-carboxamide] | 0.2 µM | 5.1 µM | – | –
15 | N#Cc1cc2c(cc1F)c1c(n2C(=O)NCc2ccnc(Cl)c2)CCN(C/C=C/c2ccc(F)cc2)C1 [Example 175, (E)-N-((2-chloropyridin-4-yl)methyl)-7-cyano-8-fluoro-2-(3-(4-fluorophenyl)allyl)-1,2,3,4-tetrahydro-5H-pyrido[4,3-b]indole-5-carboxamide] | 1.8 µM | 10 µM | – | –
16 | (E)-7,8-dichloro-N-((2-fluoropyridin-4-yl)methyl)-2-(3-(5-(trifluoromethyl)pyridin-2-yl)allyl)-1,2,3,4-tetrahydro-5H-pyrido[4,3-b]indole-5-carboxamide [Example 287] | – | – | 0.2 µM | 3.3 µM
17 | N#Cc1ccc(/C=C/CN2CCc3c(c4ccc(C#N)cc4n3C(=O)NCc3ccnc(Cl)c3)C2)cc1 [Example 33, (E)-N-((2-chloropyridin-4-yl)methyl)-7-cyano-2-(3-(4-cyanophenyl)allyl)-1,2,3,4-tetrahydro-5H-pyrido[4,3-b]indole-5-carboxamide] | 3.3 µM | > 100 µM | – | –
18 | N#Cc1ccc(/C=C/CN2CCc3c(c4cc(C#N)ccc4n3C(=O)NCc3ccnc(F)c3)C2)cc1 [Example 120, (E)-8-cyano-2-(3-(4-cyanophenyl)allyl)-N-((2-fluoropyridin-4-yl)methyl)-1,2,3,4-tetrahydro-5H-pyrido[4,3-b]indole-5-carboxamide] | 0.5 µM | > 100 µM | – | –
19 | N#Cc1ccc2c3c(n(C(=O)NCc4ccnc(Cl)c4)c2c1)CCN(C/C=C/c1ccc(Br)c(F)c1)C3 [Example 8, (E)-2-(3-(4-bromo-3-fluorophenyl)allyl)-N-((2-chloropyridin-4-yl)methyl)-7-cyano-1,2,3,4-tetrahydro-5H-pyrido[4,3-b]indole-5-carboxamide] | 0.5 µM | 18.2 µM | – | –
20 | O=C(NCc1ccnc(Cl)c1)n1c2c(c3cc(Cl)c(Cl)cc31)CN(C/C=C/c1ccc(F)c(F)c1)CC2 [Example 278, (E)-7,8-dichloro-N-((2-chloropyridin-4-yl)methyl)-2-(3-(3,4-difluorophenyl)allyl)-1,2,3,4-tetrahydro-5H-pyrido[4,3-b]indole-5-carboxamide] | 1.8 µM | 18.2 µM | – | –
21 | O=C(NCc1ccnc(Cl)c1)n1c2c(c3cccc(Cl)c31)CN(C/C=C/c1ccc(Cl)cc1)CC2 [Example 267, (E)-6-chloro-2-(3-(4-chlorophenyl)allyl)-N-((2-chloropyridin-4-yl)methyl)-1,2,3,4-tetrahydro-5H-pyrido[4,3-b]indole-5-carboxamide] | > 100 µM | 10 µM | – | –
22 | N#Cc1ccc2c3c(n(C(=O)NCc4ccnc(Cl)c4)c2c1)CCN(C/C=C/c1cccc(Cl)c1F)C3 [Example 31, (E)-2-(3-(3-chloro-2-fluorophenyl)allyl)-N-((2-chloropyridin-4-yl)methyl)-7-cyano-1,2,3,4-tetrahydro-5H-pyrido[4,3-b]indole-5-carboxamide] | 1 µM | > 100 µM | – | –
23 | COc1cc(CNC(=O)n2c3c(c4cc(C#N)ccc42)CN(C/C=C/c2ccc(Cl)cc2Cl)CC3)ccn1 [Example 65, (E)-8-cyano-2-(3-(2,4-dichlorophenyl)allyl)-N-((2-methoxypyridin-4-yl)methyl)-1,2,3,4-tetrahydro-5H-pyrido[4,3-b]indole-5-carboxamide] | – | > 100 µM | – | –
24 | COc1cc(CNC(=O)n2c3c(c4cc(C#N)ccc42)CN(C/C=C/c2ccc(Br)cc2F)CC3)ccn1 [Example 66, (E)-2-(3-(4-bromo-2-fluorophenyl)allyl)-8-cyano-N-((2-methoxypyridin-4-yl)methyl)-1,2,3,4-tetrahydro-5H-pyrido[4,3-b]indole-5-carboxamide] | – | > 100 µM | – | –
25 | COc1cc(CNC(=O)n2c3c(c4cc(C#N)ccc42)CN(C/C=C/c2ccc(F)cc2F)CC3)ccn1 [Example 67, (E)-8-cyano-2-(3-(2,4-difluorophenyl)allyl)-N-((2-methoxypyridin-4-yl)methyl)-1,2,3,4-tetrahydro-5H-pyrido[4,3-b]indole-5-carboxamide] | – | 0.01 µM | – | –
